Our source for the IC50 values is patent publication US11241398B2, “Affinity medicant conjugate” (Califia Pharma Inc., priority 2014, dated 2022).

The test system of the experiment is Prostate LnCAP (positive PSA). Description: activity of PSA cleavable analogs, 48 hour exposure, PSA positive cell line. Type of experiment: cell-based. The conditions noted are these: N = 3, mean ± SD.

As a reminder, the IC50 is the concentration that inhibits the measured activity by half. Read a high IC50 as lower potency. Consider `CC1=C2C(=C[C@@](C)(CO[Si](C)(C)C(C)(C)C)[C@@H]2OC(=O)[C@@H]2CCCN2C(=O)[C@H](CO)NC(=O)[C@@H](N)CO)C(=O)[C@](C)(O)C12CC2` [Analog 214], for which it took 0.19 ± 0.03 µM to reach half-maximal inhibition (IC50).
